Columns and labels:
[1] = Half-life determined at 5.5 mg/kg, iv, in rat; format: ADME, organism-based; design: dose 5.5 mg/kg; conditions: in vivo
[2] = Clearance rate at 0.46 mg/kg, iv, in dogs; format: ADME, organism-based, Canis lupus familiaris; design: dose 0.46 mg/kg; conditions: dog, in vivo
[3] = Volume of distribution was determined in dogs at 0.46 mg/kg, iv; format: ADME, organism-based, Canis lupus familiaris; design: dose 0.46 mg/kg, route intravenous; conditions: dog, in vivo, read-out: Vdss
[4] = Half-life determined at 0.46 mg/kg, iv, in dogs; format: ADME, organism-based, Canis lupus familiaris; design: dose 0.46 mg/kg; conditions: dog, in vivo
[5] = Maximum plasma concentration following oral administration of 3.8 mg/kg in Beagle dog; format: ADME, organism-based, Canis lupus familiaris; design: dose 3.8 mg/kg, route oral
[6] = Volume of distribution was determined in rat at 5.5 mg/kg, iv; format: ADME, organism-based; design: dose 5.5 mg/kg, route intravenous; conditions: in vivo, read-out: Vdss
[7] = Maximum plasma concentration following oral administration of 26.3 mg/kg in rats; format: ADME, organism-based; design: dose 26.3 mg/kg, route oral; conditions: rat
[8] = Bioavailability in rats at 26.3 mg/kg oral dose.; format: ADME, organism-based; conditions: rat, in vivo
[9] = Clearance rate at 5.5 mg/kg, iv, in rat; format: ADME, organism-based; design: dose 5.5 mg/kg; conditions: in vivo
[10] = Bioavailability in dogs at 3.8 mg/kg oral dose.; format: ADME, organism-based, Canis lupus familiaris; conditions: dog, in vivo
Rattus norvegicus = species on record: Rattus norvegicus; test: Effective concentration for half-maximal release of growth hormone determined in the rat pituitary cell assay, normalized against standard L692,429 (60 nM).; format: functional; conditions: Pituitary gland cell

Structure (SMILES): CCOC(=O)[C@]1(Cc2ccccc2)CCCN(C(=O)[C@@H](Cc2c[nH]c3ccccc23)NC(=O)C(C)(C)N)C1
- half-life [1]: 24 min
- clearance [2]: 23 mL/min/kg
- Vd [3]: 1.3 L/kg
- half-life [4]: 72 min
- Cmax [5]: 560 ng/mL
- Vd [6]: 2.7 L/kg
- Cmax [7]: 182 ng/mL
- bioavailability [8]: 12.1%
- clearance [9]: 206 mL/min/kg
- bioavailability [10]: 29%

Structure (SMILES): CCOC(=O)[C@]1(Cc2ccccc2)CCCN(C(=O)[C@@H](CCCc2ccccc2)NC(=O)C(C)(C)N)C1
- EC50 (Rattus norvegicus): 8 nM

Structure (SMILES): CC(C)(N)C(=O)N[C@H](Cc1c[nH]c2ccccc12)C(=O)N1CCC[C@@](Cc2ccccc2)(C(=O)O)C1
- EC50 (Rattus norvegicus): 190 nM

Structure (SMILES): CCOC(=O)[C@]1(Cc2ccccc2)CCCN(C(=O)[C@@H](Cc2c[nH]c3ccccc23)NC(=O)C(C)N)C1 (stereo partly drawn)
- EC50 (Rattus norvegicus): 6 nM

Structure (SMILES): CCNC(=O)[C@]1(Cc2ccccc2)CCCN(C(=O)[C@@H](Cc2c[nH]c3ccccc23)NC(=O)C(C)(C)N)C1
- EC50 (Rattus norvegicus): 0.8 nM

Structure (SMILES): CCOC(=O)[C@]1(Cc2ccccc2)CCCCN(C(=O)[C@@H](Cc2c[nH]c3ccccc23)NC(=O)C(C)(C)N)C1
- EC50 (Rattus norvegicus): > 200 nM

Structure (SMILES): CCOC(=O)[C@@]1(Cc2ccccc2)CCCN(C(=O)[C@@H](Cc2c[nH]c3ccccc23)NC(=O)C(C)(C)N)C1
- EC50 (Rattus norvegicus): 22 nM

Structure (SMILES): CCOC(=O)[C@]1(Cc2ccccc2)CCCN(C(=O)[C@@H](COCc2ccccc2)NC(=O)C(C)(C)N)C1
- EC50 (Rattus norvegicus): 20 nM

Structure (SMILES): CCOC(=O)[C@]1(Cc2ccccc2)CCN(C(=O)[C@@H](Cc2c[nH]c3ccccc23)NC(=O)C(C)(C)N)C1
- EC50 (Rattus norvegicus): > 50 nM

From ChEMBL document CHEMBL1131305, “1-[2(R)-(2-amino-2-methylpropionylamino)-3-(1H-indol-3-yl)propionyl]- 3-benzylpiperidine-3(S)-carboxylic acid ethyl ester (L-163,540): a potent, orally bioavailable, and short-duration growth hormone secretagogue” (J Med Chem, 1998)
